Experimental data from ChEMBL document CHEMBL1201862, “PubChem BioAssay data set” (2004).
Calls of active or inactive are those of the source.

Legend:
Protein Wnt-3a = Protein Wnt-3a (Mus musculus, UniProt P27467); assay: Wnt3a-driven reporter signaling inhibition, dose response, selectivity assay for Gli-SUFU antagonist project, Wnt-LIGHT cells, luminescence (AID 651570); type: functional; details: read-out: IC50_Mean;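 also: Wnt-LIGHT reporter cells stimulated with conditioned medium from Wnt3a-producing cells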
Sequence of Protein Wnt-3a (P27467 whole entry): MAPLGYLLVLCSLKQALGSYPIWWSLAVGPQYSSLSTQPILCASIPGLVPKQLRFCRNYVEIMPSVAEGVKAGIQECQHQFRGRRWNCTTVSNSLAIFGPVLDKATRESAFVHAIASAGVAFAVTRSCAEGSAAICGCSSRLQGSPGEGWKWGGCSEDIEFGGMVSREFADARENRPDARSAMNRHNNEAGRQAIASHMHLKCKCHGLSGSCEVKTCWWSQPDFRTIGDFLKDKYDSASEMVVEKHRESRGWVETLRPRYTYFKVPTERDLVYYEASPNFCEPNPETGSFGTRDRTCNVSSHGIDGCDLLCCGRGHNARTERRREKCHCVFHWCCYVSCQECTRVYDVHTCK

Melanocortin receptor 4 = Melanocortin receptor 4 (Homo sapiens, UniProt P32245); type: functional, cell-based;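 also: Cell-based assay with luminescence read-out, confirmatory dose-response testing for agonist activity of biased ligands at MC4R; human U2OS cells with tagged receptor and beta-arrestin; potency of agonists that increase receptor coupling to beta-arrestin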
[1] = target: T1, Sentrin-specific protease 8 (Homo sapiens, UniProt Q96LD8); type: functional
T1 sequence (Q96LD8 whole entry): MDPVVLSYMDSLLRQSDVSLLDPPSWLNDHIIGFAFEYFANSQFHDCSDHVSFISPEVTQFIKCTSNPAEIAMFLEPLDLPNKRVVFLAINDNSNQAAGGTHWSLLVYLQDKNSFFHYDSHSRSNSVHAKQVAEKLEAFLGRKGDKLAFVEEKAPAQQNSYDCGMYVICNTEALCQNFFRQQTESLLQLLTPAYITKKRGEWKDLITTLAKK

[2] = target: T1, Sentrin-specific protease 8; type: functional; remark: listed apart in the source
[3] = cytotoxicity toward NIH3T3 fibroblasts, dose response, counter-screen, cell-based, ATP luminescence, mouse fibroblasts (AID 2010); type: functional;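 also: cells exposed to compound for about 90 hours before reading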
[4] = inhibitors of intracellular T. cruzi replication, confirmation, NIH3T3 host cells, beta-gal luminescence (AID 2044); type: functional, cell-based;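 also: intracellular parasites grown in NIH/3T3 mouse fibroblasts as host cells; luminescent beta-galactosidase reporter signal from transgenic T. cruzi replicating inside host cells; inhibitors lower the luminescence signal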
[5] = growth suppression of PTEN-null colon cells, dose response, cell-based, HCT116 PTEN knockout (AID 1047); type: functional;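 also: HCT116 colon tumor cells with PTEN knocked out; cells exposed to compound for 60 hours before readout; potency for loss of cell viability measured by luminescence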
[6] = target: 5-hydroxytryptamine receptor 5A (Homo sapiens, UniProt P47898); assay: Counterscreen for agonists of OPRM1-OPRD1 heterodimerization: luminescence-based cell-based high throughput dose response assay to identify agonists of 5-hydroxytryptamine (serotonin) 5A receptor (HTR5A). [Related pubchem assays (depositor defined):AID504326, AID504355, AID504692, AID504904, AID504905]; type: functional
Sequence of 5-hydroxytryptamine receptor 5A (P47898 whole entry): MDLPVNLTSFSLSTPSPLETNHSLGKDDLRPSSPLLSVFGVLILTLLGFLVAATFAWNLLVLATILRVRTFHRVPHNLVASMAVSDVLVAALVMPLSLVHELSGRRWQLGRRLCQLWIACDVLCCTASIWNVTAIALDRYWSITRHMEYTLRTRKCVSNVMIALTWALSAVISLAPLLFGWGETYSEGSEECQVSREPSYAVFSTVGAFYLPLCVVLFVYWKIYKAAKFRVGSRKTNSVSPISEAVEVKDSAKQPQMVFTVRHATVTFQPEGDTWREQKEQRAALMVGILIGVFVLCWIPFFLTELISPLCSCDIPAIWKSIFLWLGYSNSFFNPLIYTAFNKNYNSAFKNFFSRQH

Mu-type opioid receptor = Mu-type opioid receptor (Homo sapiens, UniProt P35372); assay: (§1) Counterscreen for agonists of heterodimerization of the mu 1 (OPRM1) and delta 1 (OPRD1) opioid receptors: Luminescence-based cell-based high throughput dose response assay to identify agonists of OPRM1 homodimerization.; type: functional
Sequence of Mu-type opioid receptor (P35372 whole entry): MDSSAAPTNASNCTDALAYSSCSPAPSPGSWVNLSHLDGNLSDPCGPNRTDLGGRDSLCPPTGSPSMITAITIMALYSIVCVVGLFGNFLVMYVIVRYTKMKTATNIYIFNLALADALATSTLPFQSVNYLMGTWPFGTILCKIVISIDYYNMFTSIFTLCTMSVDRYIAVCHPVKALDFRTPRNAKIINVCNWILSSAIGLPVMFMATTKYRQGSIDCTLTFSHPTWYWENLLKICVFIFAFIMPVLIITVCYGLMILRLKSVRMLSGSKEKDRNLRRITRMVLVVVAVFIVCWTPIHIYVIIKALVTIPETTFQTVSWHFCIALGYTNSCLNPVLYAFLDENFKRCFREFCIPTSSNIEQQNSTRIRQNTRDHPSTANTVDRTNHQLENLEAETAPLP

[7] = target: T2, High affinity choline transporter 1 (Homo sapiens, UniProt Q9GZV3); assay: CHT inhibitors, dose response, cell-based, 5-point CRC, membrane potential dye (AID 504840); type: functional
T2 sequence (Q9GZV3 whole entry): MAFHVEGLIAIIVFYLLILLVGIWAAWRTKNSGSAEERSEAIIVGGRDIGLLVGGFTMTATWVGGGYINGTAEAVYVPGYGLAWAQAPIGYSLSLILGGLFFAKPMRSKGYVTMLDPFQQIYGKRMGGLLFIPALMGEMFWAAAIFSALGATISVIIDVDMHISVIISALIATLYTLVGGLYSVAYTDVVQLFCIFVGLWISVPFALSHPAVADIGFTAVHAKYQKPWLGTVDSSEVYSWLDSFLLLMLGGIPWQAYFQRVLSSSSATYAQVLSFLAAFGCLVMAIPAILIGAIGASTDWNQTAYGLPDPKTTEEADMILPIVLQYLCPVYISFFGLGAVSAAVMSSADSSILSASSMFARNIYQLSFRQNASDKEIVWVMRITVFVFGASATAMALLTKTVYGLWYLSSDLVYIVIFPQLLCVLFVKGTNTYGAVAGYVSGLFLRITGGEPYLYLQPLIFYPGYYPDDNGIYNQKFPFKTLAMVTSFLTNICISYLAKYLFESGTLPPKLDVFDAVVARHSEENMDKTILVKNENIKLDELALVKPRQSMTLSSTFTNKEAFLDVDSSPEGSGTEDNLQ

[8] = Shn3 3'UTR reporter inhibitors, dose response, cell-based, Clone20 osteoblasts, firefly luciferase, cherry-picked (AID 624132); type: functional;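 also: firefly luciferase luminescence from reporter carrying the Shn3 3'UTR in osteoblasts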
[9] = target: Delta-type opioid receptor (Homo sapiens, UniProt P41143); assay: as §1, with “of OPRD1” for “of OPRM1”, “homodimerization. [Related pubchem assays (depositor defined):AID504326, AID504355, AID504692, AID504904, AID504905]” for “homodimerization.”; type: functional
Sequence of Delta-type opioid receptor (P41143 whole entry): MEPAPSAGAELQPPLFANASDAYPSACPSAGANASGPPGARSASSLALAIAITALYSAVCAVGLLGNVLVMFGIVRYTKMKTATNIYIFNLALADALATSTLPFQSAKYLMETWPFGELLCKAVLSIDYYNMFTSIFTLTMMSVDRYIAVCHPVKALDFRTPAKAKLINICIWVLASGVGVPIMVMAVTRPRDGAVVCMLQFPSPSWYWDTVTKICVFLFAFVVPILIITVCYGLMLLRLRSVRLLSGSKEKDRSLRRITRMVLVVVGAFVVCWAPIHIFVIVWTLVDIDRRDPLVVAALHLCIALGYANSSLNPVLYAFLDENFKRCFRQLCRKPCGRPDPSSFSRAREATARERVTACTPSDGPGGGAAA

[10] = growth suppression of beta-catenin-knockout colon cells, dose response, cell-based, HCT116, human colon tumor (AID 1045); type: functional;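 also: HCT116 colon tumor cells with beta catenin knocked out; cells exposed to compound for 60 hours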
[11] = HepG2 cell cytotoxicity, dose response, cytotoxicity control for Shn3 inhibitor project, CellTiter-Glo, cherry-picked (AID 624134); type: functional, cell-based
[12] = target: T2, High affinity choline transporter 1; assay: CHT inhibitors, dose response, cell-based, 10-point CRC, membrane potential dye (AID 588401); type: functional;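 also: membrane potential dye fluorescence of choline-evoked depolarization via CHT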
[13] = control 3'UTR Renilla luciferase suppression, dose response, counter-screen for Shn3 inhibitor project, cell-based, Clone20-Shn3RL, cherry-picked (AID 624133); type: functional
Aurora kinase B = Aurora kinase B (Homo sapiens, UniProt Q96GD4); type: functional
Sequence of Aurora kinase B (Q96GD4 whole entry): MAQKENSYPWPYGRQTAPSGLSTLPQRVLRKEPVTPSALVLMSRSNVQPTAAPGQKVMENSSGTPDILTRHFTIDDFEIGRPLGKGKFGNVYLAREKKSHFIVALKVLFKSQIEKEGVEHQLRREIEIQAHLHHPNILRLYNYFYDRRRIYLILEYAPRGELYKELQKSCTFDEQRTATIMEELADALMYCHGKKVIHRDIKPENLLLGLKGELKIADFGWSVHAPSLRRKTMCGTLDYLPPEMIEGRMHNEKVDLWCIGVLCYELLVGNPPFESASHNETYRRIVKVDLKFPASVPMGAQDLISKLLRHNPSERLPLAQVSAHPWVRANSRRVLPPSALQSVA

Aurora kinase A = target: T3, Aurora kinase A (Homo sapiens, UniProt O14965); type: functional;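 also: value from the Navigating the Kinome kinase panel profiling, panel entry STK6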
T3 sequence (O14965 whole entry): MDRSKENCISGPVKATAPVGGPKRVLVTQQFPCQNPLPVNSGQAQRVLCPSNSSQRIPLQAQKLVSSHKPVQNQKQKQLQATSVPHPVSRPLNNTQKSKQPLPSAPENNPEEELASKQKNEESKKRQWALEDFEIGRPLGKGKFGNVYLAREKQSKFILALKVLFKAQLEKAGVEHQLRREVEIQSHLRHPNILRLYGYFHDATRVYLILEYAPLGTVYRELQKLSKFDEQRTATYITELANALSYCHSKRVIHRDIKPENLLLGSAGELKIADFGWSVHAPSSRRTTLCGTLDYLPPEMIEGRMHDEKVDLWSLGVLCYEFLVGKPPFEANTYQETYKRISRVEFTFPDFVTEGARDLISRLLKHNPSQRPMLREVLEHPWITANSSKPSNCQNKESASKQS

[14] = target: Vascular endothelial growth factor receptor 2 (Homo sapiens, UniProt P35968); type: functional
Sequence of Vascular endothelial growth factor receptor 2 (P35968 whole entry): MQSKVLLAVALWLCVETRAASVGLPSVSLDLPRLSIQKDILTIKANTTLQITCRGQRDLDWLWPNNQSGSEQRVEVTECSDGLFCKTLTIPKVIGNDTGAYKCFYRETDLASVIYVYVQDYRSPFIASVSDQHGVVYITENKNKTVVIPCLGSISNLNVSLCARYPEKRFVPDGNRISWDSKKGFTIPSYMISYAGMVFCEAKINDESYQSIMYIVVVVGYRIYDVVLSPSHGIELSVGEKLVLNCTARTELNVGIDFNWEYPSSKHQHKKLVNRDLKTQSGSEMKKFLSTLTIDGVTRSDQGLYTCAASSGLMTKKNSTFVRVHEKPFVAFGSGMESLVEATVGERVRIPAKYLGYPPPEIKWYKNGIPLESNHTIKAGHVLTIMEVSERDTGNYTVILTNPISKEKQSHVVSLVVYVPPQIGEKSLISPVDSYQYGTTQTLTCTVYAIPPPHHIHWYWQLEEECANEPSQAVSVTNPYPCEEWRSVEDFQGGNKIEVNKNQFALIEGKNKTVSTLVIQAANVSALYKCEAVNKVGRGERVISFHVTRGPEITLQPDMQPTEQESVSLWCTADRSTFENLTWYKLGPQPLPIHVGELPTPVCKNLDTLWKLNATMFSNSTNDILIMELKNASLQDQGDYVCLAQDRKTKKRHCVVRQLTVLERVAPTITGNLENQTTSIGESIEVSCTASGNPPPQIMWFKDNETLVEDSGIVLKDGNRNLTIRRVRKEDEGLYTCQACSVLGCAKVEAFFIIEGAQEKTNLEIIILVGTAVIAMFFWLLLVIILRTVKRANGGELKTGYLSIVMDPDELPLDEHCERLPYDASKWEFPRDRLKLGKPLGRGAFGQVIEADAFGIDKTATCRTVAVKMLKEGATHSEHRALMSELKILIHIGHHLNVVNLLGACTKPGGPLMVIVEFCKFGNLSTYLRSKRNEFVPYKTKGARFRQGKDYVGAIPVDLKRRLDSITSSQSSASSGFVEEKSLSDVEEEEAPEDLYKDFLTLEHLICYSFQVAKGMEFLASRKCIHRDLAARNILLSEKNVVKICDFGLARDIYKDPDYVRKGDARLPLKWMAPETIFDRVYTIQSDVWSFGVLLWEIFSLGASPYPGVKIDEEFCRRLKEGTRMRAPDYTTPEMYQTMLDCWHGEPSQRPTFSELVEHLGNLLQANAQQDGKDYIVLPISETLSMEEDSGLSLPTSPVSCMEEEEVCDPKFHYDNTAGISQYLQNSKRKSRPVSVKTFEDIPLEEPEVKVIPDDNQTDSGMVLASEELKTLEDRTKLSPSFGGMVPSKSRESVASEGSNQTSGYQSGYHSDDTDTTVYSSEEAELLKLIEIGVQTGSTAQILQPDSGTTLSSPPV

[15] = target: Long-chain-fatty-acid--AMP ligase FadD28 (Mycobacterium tuberculosis, UniProt P9WQ59); assay: Fluorescence polarization aasay to screen for inhibitors that compete for the binding of FadD28 to a bisubstrate Measured in Biochemical System Using Plate Reader - 2147-01_Inhibitor_Dose_CherryPick_Activity.; type: functional, Mycobacterium tuberculosis H37Rv
Sequence of Long-chain-fatty-acid--AMP ligase FadD28 (P9WQ59 whole entry): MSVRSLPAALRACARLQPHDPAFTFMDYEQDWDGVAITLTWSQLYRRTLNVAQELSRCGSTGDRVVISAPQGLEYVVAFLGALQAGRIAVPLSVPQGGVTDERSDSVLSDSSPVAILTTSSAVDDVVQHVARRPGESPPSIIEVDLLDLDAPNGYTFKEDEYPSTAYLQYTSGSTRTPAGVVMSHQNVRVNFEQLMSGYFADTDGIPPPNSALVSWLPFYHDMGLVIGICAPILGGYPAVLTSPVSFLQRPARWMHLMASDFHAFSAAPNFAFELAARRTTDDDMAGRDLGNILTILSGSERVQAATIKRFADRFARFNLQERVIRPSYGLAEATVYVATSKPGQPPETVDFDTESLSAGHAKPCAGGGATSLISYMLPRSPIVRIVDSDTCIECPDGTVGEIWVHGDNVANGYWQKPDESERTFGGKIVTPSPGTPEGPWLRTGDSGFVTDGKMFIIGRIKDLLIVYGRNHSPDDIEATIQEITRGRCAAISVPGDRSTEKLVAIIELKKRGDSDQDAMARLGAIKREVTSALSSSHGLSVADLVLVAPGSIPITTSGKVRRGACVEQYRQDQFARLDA

Bcl-2-related protein A1 = target: T4, Bcl-2-related protein A1 (Mus musculus, UniProt Q07440); type: functional;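 also: confirmatory dose–response counterscreen on Bfl-1, used to check hits from a UBC13 polyubiquitin inhibitor campaign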
T4 sequence (Q07440 whole entry): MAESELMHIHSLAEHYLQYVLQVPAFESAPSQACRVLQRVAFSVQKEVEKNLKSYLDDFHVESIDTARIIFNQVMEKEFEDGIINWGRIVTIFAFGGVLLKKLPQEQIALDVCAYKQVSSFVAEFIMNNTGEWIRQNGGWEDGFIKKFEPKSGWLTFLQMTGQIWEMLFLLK

[16] = target: T5, Ubiquitin-conjugating enzyme E2 N (Homo sapiens, UniProt P61088); type: functional
T5 sequence (P61088 whole entry): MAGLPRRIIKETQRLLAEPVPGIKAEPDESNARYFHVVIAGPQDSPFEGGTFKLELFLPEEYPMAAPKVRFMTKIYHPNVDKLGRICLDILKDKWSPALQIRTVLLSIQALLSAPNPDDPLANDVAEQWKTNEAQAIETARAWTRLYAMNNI

[17] = target: T5, Ubiquitin-conjugating enzyme E2 N; type: functional; remark: listed apart in the source
[18] = target: Arf-GAP with SH3 domain, ANK repeat and PH domain-containing protein 1 (Homo sapiens, UniProt Q9ULH1); type: functional;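 also: biochemical fluorescence polarization dose–response screen measuring inhibition of ASAP1; ASAP1 GAP domain stimulating GTP hydrolysis by truncated human ARF1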
Sequence of Arf-GAP with SH3 domain, ANK repeat and PH domain-containing protein 1 (Q9ULH1 whole entry, the tested form may be a part): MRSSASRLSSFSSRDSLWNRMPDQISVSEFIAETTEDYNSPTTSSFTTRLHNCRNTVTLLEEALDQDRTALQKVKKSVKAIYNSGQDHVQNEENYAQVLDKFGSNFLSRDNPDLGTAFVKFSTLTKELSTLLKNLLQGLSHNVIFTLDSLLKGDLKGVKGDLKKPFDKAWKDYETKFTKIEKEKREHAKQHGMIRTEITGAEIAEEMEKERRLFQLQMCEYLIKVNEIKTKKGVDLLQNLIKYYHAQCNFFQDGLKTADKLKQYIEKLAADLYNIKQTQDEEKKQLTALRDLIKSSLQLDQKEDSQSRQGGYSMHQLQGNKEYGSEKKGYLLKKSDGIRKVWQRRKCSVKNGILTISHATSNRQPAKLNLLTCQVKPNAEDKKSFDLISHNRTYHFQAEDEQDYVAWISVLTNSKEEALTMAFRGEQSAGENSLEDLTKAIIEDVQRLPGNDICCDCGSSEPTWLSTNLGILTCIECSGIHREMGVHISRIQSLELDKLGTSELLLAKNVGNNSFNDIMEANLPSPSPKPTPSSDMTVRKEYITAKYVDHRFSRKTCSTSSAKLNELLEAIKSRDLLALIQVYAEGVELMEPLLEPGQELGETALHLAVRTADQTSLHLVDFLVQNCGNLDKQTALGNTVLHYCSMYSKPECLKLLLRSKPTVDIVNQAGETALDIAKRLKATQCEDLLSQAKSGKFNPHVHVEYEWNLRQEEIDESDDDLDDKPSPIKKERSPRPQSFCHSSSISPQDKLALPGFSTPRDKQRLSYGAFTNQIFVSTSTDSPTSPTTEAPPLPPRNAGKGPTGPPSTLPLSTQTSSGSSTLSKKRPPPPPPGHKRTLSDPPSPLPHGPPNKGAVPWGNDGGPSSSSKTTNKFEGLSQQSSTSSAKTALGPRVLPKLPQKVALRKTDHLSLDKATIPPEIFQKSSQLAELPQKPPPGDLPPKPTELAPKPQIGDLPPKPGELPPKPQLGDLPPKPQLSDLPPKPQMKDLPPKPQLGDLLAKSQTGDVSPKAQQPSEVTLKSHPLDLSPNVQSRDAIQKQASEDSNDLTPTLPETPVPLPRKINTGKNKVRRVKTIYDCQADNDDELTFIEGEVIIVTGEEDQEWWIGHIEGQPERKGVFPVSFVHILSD

[19] = non-specific cell cytotoxicity, dose response, cytotoxicity control for PAX8 inhibitor project, plate reader, dry powder samples (AID 743021); type: functional, cell-based
[20] = HepG2 cell cytotoxicity, dose response, cytotoxicity control, plate reader, cherry-pick, antagonist series (AID 743416); type: functional, cell-based
Paired box protein Pax-8 = Paired box protein Pax-8 (Homo sapiens, UniProt Q06710); assay: inhibitors of PAX8-driven TPO luciferase reporter, dose response, RMG-I cells, cherry-pick (AID 687027); type: functional, cell-based;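 also: luciferase reporter driven by Pax8 target thyroperoxidase promoter measured by SteadyGlo luminescence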
[21] = HEK293 cell cytotoxicity, dose response, cytotoxicity control, plate reader, cherry-picked samples (AID 743446); type: functional, cell-based
[22] = target: Glucose-6-phosphate 1-dehydrogenase (Homo sapiens, UniProt P11413); assay: human G6PD enzyme inhibitors, dose response, selectivity assay for P. falciparum G6PD inhibitor project, biochemical, fluorescence (AID 504792); type: functional
[23] = A549 cell cytotoxicity, dose response, cytotoxicity control, plate reader, cherry-pick, antagonist series (AID 743412); type: functional, cell-based
[24] = target: Mitochondrial peptide methionine sulfoxide reductase (Bos taurus, UniProt P54149); type: functional;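 also: absorbance read-out, biochemical high-throughput dose-response screen for MsrA inhibitors, confirmatory; recombinant bovine MsrA coupled to E. coli TrxB with NADPH and selenocystamine; potency is for inhibitors of MsrA activity on DMSO substrate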
[25] = LGR2 antagonists, dose response, cell-based, HEK293, CRE-luciferase reporter, cherry pick, set 2 (AID 743343); type: functional;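 also: transfected cells were stimulated with diluted bursicon conditioned medium after compound addition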
[26] = MC4R antagonists, dose response, counter-screen for LGR2 antagonist project, cell-based, plate reader, cherry pick (AID 743444); type: functional;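 also: transfected HEK 293 cells stimulated with alpha-MSH peptide; potency of inhibitors of the alpha-MSH evoked signal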

Compound: CCCN1CCC(=O)N([C@H](CSc2ccc(OC)cc2)Cc2ccccc2)CC1
- IC50 (Protein Wnt-3a): 11 µM (active)

Compound: N#Cc1sc2nc(-c3cccs3)cc(-c3ccc(F)cc3)c2c1N
- EC50 (Melanocortin receptor 4): > 89.2 µM (inactive)

Compound: Cn1c(NNC(=O)c2c(F)cccc2F)cc(=O)n(C)c1=O
- IC50 [1]: 12.5 µM (active)
- IC50 [2]: 28 µM (active)

Compound: Cc1ccc(Cn2c(=N)n(CC(O)COc3ccccc3)c3ccccc32)cc1 (stereo not drawn)
- EC50 [3]: 9.05 µM (active)
- EC50 [4]: 4.91 µM (active)
- EC50 [5]: 5.49 µM (active)
- EC50 [6]: > 92.5 µM (inactive)
- EC50 (Mu-type opioid receptor): 35.1 µM (inactive)
- IC50 [7]: 5.55 µM (active)
- AC50 [8]: 2.46 µM (active)
- EC50 [9]: > 92.5 µM (inactive)
- EC50 [10]: 5.07 µM (active)
- AC50 [11]: 21.4 µM (active)
- IC50 [12]: 7.08 µM (active)
- AC50 [13]: 3.9 µM (active)

Compound: O=S(=O)(Nc1ccc2c(c1)C(=NO)c1ccccc1-2)c1cccc(Cl)c1
- Ki (Aurora kinase B): 0.00398 µM (active)
- Ki (Aurora kinase A): > 2 µM (inactive)
- Ki [14]: 3.16 µM (active)

Compound: CC(C)(C)c1ccc(NC(=O)Nc2ccc(OCC(=O)N3CCOCC3)cc2)cc1
- AC50 [15]: 41.4 µM (active)

Compound: COCCN=C(S)N=Nc1c(O)[nH]c2ccc([N+](=O)[O-])cc12
- IC50 (Bcl-2-related protein A1): > 20 µM (inactive)
- IC50 [16]: 6.15 µM (active)
- IC50 [17]: 1.52 µM (active)
- IC50 [18]: 26.8 µM (inactive)

Compound: Cc1ccc(Cl)cc1N=C1C=C(NS(=O)(=O)c2cccs2)c2ccccc2C1=O
- AC50 [19]: 17.2 µM (active)
- AC50 [20]: 8 µM (active)
- AC50 (Paired box protein Pax-8): 4.82 µM (active)
- AC50 [21]: 7.88 µM (active)
- IC50 [22]: > 80 µM (inactive)
- AC50 [23]: 10.1 µM (active)
- IC50 [24]: 155 µM (inactive)
- AC50 [25]: 4.71 µM (active)
- AC50 [26]: 5.09 µM (active)
